Here are results for 3 compounds from US20230103444A1 (The Regents of the University of Colorado, a Body Corporate, priority 2020, published 2023).

A word on the inhibition: it is the percentage by which the read-out fell short of the control. Broadly, the IC50 is the midpoint of a concentration-inhibition curve. By EC50 is commonly meant the concentration needed to bring the measured effect to its halfway point. As usually defined, the half-life is the time in which the quantity being followed falls by half.

Where two headings read alike, the source gives them in different places.

The target of one series is T1, cat-CHD1L ATPase (Homo sapiens, UniProt Q86WJ1).
T1 construct: inferred from Ni-NTA / imidazole purification; made in house; host or cells: E. coli Rosetta 2 (DE3) pLysS; constructs were a gift from Helena Berglund, Karolinska Institute
T1 sequence (Q86WJ1 16-611 limits assumed): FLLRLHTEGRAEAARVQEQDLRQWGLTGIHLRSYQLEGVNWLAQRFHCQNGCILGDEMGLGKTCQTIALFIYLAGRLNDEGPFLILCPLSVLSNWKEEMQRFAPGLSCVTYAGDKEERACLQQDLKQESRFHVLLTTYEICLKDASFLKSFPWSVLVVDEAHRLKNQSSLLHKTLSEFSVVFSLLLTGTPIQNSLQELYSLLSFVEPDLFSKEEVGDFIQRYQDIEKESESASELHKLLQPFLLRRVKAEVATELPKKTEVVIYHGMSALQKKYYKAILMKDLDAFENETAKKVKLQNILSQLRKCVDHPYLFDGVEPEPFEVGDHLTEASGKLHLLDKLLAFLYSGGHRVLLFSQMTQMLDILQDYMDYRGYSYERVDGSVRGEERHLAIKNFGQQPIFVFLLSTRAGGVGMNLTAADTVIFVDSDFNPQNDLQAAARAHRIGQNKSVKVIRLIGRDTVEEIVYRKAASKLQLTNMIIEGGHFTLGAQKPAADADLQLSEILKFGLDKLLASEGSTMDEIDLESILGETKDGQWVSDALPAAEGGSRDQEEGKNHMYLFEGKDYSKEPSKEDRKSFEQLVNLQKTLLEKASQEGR
Nature of the series: CHD1L ATPase assay with recombinant catalytic domain (cat-CHD1L). Format: biochemical. Conditions: for inhibition at 20 µM: confirmed HTS hits, HTS at 20 μM, read-out: inhibition against cat-CHD1L ATPase; for IC50: units given with the values (nM, μM), read-out: activity in dose response studies against cat-CHD1L ATPase (IC50, FIG. 1A). As for the experimental part: All reactions were carried out using low volume non-binding surface 384-well plates (Corning Inc., Corning N.Y.). cat-CHD1L or fl-CHD1L (100 nM) and 200 nM c-Myc DNA or mononucelosome (Active Motif, Carlsbad, Calif.) were added to a buffer containing 50 mM Tris pH 7.5, 50 mM NaCl, 1 mM DTT, 5% glycerol, and the reaction was initiated by the addition of 10 μM ATP (New England Biolabs, Ipswich, Mass.) to a total volume of 10 μL and incubated at 37° C. for 1 h. ATPase activity was assayed by adding 500 nM of Phosphate Sensor (Life Technologies, Carlsbad, Calif.), containing labeled phosphate-binding protein, specifically labeled with the fluorophore MDCC, and measuring excitation (430 nm) and emission (450 nm) immediately on an EnVision® plate reader (PerkinElmer, Hopkinton, Mass.). An inorganic phosphate standard curve was used to convert the fluorescence to [Pi], and enzyme kinetics were determined using Prism8 (GraphPad Software, San Diego, Calif.).
Assay composition was the same as described above using cat-CHD1L, except that the reaction mixture volume was modified to accommodate addition of drug or DMSO. Using a Janus® liquid handler (PerkinElmer, Hopkinton, Mass.), a selected amount of compounds dissolved in 100% DMSO were mixed with 50 mM Tris pH 7.5, 50 mM NaCl, 1 mM DTT, 5% glycerol buffer to 200 μM in 10% DMSO. […] The negative control used was 1% DMSO and 10 mM EDTA was used as a positive control. Reactions were initiated with the addition of 10 μM ATP and incubated at 37° C. for 1 h. ATPase activity was measured by fluorescence by adding 500 nM Phosphate Sensor. cat-CHD1L was screened against a 20,000-compound diversity set from Life Chemicals (Woodbridge, Conn.) and a Kinase Inhibitor library from Selleck Chemicals (Houston, Tex.).
CHD1L Enzyme ATPase Assay. […] All reactions were carried out using low volume nonbinding surface 384-well plates (Corning Inc., Corning, N.Y.). […] The reaction was initiated by the addition of 10 μmol/L ATP (New England Biolabs, Ipswich, Mass.) to a total volume of 10 μL and incubated at 37° C. for 1 hour. ATPase activity was measured by adding 500 nmol/L of Phosphate Sensor (ThermoFisher, Waltham, Mass.) measuring excitation (430 nm) and emission (450 nm) immediately on an Envision plate reader (PerkinElmer, Waltham, Mass.). Background signal was determined by using all assay components excluding the enzyme.

The test system of series [1] is vimentin promoter activity. The series is described as follows: VimPro-GFP reporter 3D high-content imaging in tumor organoids. Format: cell-based, human. Conditions: 72 h. As to the method: (§1) After validating hits 5-7 against CHD1L mediated TCF transcription, the ability of these compounds to reverse EMT and other malignant properties in CRC were evaluated. E-cadherin and vimentin are putative biomarkers for the epithelial and mesenchymal phenotypes, respectively. [McDonald et al., 2015] Loss of E-cadherin and gain of vimentin are also clinical biomarkers of poor prognosis. [Yun et al., 2014; Richardson et al., 2012; Dhanasekaran et al., 2001; Kashiwagi et al., 2010; Toiyama et al., 2013] Accordingly, lentiviral promoter driven reporters for E-cadherin (pCDH1-EcadPro-RFP) and vimentin (pCDH1-VimPro-GFP) were developed, which faithfully report E-cadherin and vimentin protein expression, respectively. [Zhou et al., 2016; Abraham et al., 2019] SW620 cells transduced with either EcadPro-RFP or VimPro-GFP were cultured as tumor organoids for 72 h, reaching a diameter of 600 μm. Tumor organoids were treated with compounds 5-7 for an additional 72 h to determine the effective concentration 50 percent (EC50) for modulating promoter activity. Changes in promoter expression was quantified using a 3D confocal image […] based high-content analysis algorithm (FIG. 2A-2B). [Zhou et al., 2016; Abraham et al., 2019]
(§2) Stable VimPro-GFP or EcadPro-RFP SW620 reporter cells were generated using pCDH imPro-GFP-EF1-puro virus or pCDH-EcadPro-mCherry-EF1-puro virus as previously reported. [Zhou et al., 2016; Abraham et al., 2019] The stable fluorescently labeled reporter cells were used to generate tumor organoids as described herein. Tumor organoids were treated with CHD1L inhibitors at 10 μM for an additional 72 h. Following treatment, tumor organoids were stained with 16 μM of Hoechst 33342 for 1 h (nuclei stain). Images were taken with a 5× air objective. Z-stacks were set at 26.5 μm apart for a total of 15 optical slices. Imaging and high-content analysis were performed using an Opera Phenix™ and Harmony® software (PerkinElmer, Hopkinton, Mass.). Nuclei were identified within each layer and cells were found with either GFP or mCherry channel. The fluorescence intensities of each channel were calculated and thresholds were set based on the background intensities. Percentages of GFP or mCherry RFP positive cells were calculated and normalized to the DMSO treated group.
3D High-Content Imaging and Analysis of EMT Dual-Reporter Activity. Tumor organoids were imaged using the Opera Phenix high-content screening system (PerkinElmer) in confocal mode utilizing a 10× air objective (NA 0.3). […] Organoids were also imaged in Brightfield to segment and perform high-content analysis of dual reporter specific fluorescence intensity. […] Both fluorescent signals were quantified and normalized as previously described. […]

Series [2] deals with E-cadherin promoter activity. The series is described as follows: EcadPro-RFP reporter 3D high-content imaging in tumor organoids. Type of series: cell-based. As to conditions: 72 h. As to the method: as §1
CHD1L has been reported to confer anti-apoptotic activity by inhibiting activation of caspase-dependent apoptosis. [Li et al., 2013; Sun et al., 2016] Additionally, reversal or inhibition of EMT is known to restore apoptotic activity of cancer cells. [Lu et al., 2014] To determine if CHD1L inhibitors reverse EMT prior to induction of cell death, E-cadherin expression by EcadPro-RFP reporter activity was monitored and cytotoxicity was measured using the CellTox™ Green assay. Cells were treated with CHD1L inhibitors for 72 h and imaged every 2 h.
as §2
3D High-Content Imaging and Analysis of EMT Dual-Reporter Activity. Tumor organoids were imaged using the Opera Phenix high-content screening system (PerkinElmer) in confocal mode utilizing a 10× air objective (NA 0.3). The following excitation and emission (Ex/Em) wavelengths were employed: RFP (561/570-630) and GFP (488/500-550). Organoids were also imaged in Brightfield to segment and perform high-content analysis of dual reporter specific fluorescence intensity. RFP fluorescent signal correlates with E-Cadherin promoter activity, while GFP fluorescent signal is correlates with vimentin promoter activity. Both fluorescent signals were quantified and normalized as previously described. (Esquer, et al., 2021)

For the next series, the system named is HCT116 tumor organoids. The series is described as follows: Tumor organoid cytotoxicity (CellTiter-Glo 3D). Type of series: cell-based, human. As to conditions: Homo sapiens. As to the method:
Cell based cytotoxicity dose response and combination studies. […] Plates were then incubated for 3 days before treatment.
Cell Line Tumor Organoid Culture.
Tumor Organoid Cytotoxicity.

In another series the test system is SW620 tumor organoids. Nature of the series: Tumor organoid cytotoxicity (CellTiter-Glo 3D). As to conditions: Homo sapiens, SW-620, read-out: IC50 of cytotoxicity in SW620 cells. In general terms: In ATP-based viability assays light output follows the ATP content of the culture.
Series [3] is described as follows: Mouse liver microsome stability. As to conditions: CD-1, mouse, liver microsomes, pH 7.4, Microsomal stability Mouse t1/2 (min), Table 6. (Liver microsomes are a subcellular fraction often used to study metabolism.)
Experimental: Microsome stability. CD-1 mouse microsomes were commercially purchased and the reactions were performed as previously described. […] The master mix was pre-incubated at 37° C. for 5 min, then 1 mM NADPH was added to start the microsomal activity reaction and maintained at 37° C. throughout the time course. Reactions were stopped at 0, 5, 15, 30, 45, and 60 min by adding 200 μL acetonitrile and analyzed by mass spectrometry. The appropriate microsome controls were also performed in the same reaction conditions.
The subject of the next series is TCF-transcription. The series is described as follows: TOPflash TCF-transcriptional reporter assay. Format: cell-based, human. Conditions: TOPflash reporter in CRC cell lines (SW620, HCT116, DLD1CHD1L-OE), 24 h. As for the experimental part: TOPflash assay (Millipore, Billerica, Mass.) was used to evaluate TCF transcriptional activity in CRC cells. A total of 20,000 cells per well were plated into 96-well white plates and transfected with TransIT®-LT1 transfection reagent (Mirus, Madison, Wis.). Cells were incubated with transfection mix for 24 h. Next, cells were washed with phosphate-buffered solution (PBS) and a 1:1 ratio of PBS:ONE-Glo™ luciferase reagent Promega (Madison, Wis.) was added and the luminescence was detected within 10 min. A duplicate experiment was conducted to measure cell viability using CellTiter-Glo® Luminescent Cell Viability Assay (Promega, Madison, Wis.), which was used to normalize TOPflash luminescence to obtain the fold change in TCF activity. Experiments were replicated 2× (n=3 for each experiment).
TCF-transcriptional Reporter Assay. […] Afterwards, cells from the white solid bottom plate were carefully washed with PBS and a 1:1 ratio of PBS:One-Glo Luciferase Assay System (Promega) was added, incubated for 10 min, and luminescence was quantified on Envision plate reader (PerkinElmer) for TCF-activity. As a control, cells from the clear plate were lysed with Mammalian Cell Lysis Buffer (Promega) and the total protein from each well was quantified with BCA assay (ThermoFisher).
For orientation: In a reporter assay the amount or activity of a reporter protein is the signal.

Where [4] appears, read: SW620 or HCT116 tumor organoids.

Turning to `Cc1ccc(Nc2nc(N3CCN(CCO)CC3)nc3nccnc23)cc1Cl` [Compound 7], the inhibition at 20 µM on cat-CHD1L ATPase is over 50%. In addition, the IC50 on cat-CHD1L ATPase lay in the range of 900 to 5000 nM. In addition, the EC50 in series [1] (Homo sapiens, SW-620, read-out: EC50 downregulation of vimentin promoter activity, SW620 tumor organoids) was determined as 12.8 ± 1.3 µM; in series [2] (Homo sapiens, SW-620, read-out: EC50 upregulation of E-cadherin promoter activity, SW620 tumor organoids), 28 ± 0.003 µM.
Turning to `Cc1cc(Nc2ccc(NC(=O)Cc3c[nH]c4ccccc34)cc2)nc(N2CCCC2)n1` [Compound 6.5, 2-(1H-indol-3-yl)-N-(4-((6-methyl-2-(pyrrolidin-1-yl)pyrimidin-4-yl)amino)phenyl)acetamide], the IC50 with HCT116 tumor organoids (HCT-116, 72 h, Table 6, read-out: 3 D Cytotoxicity 72 hr IC50 (μM) HCT116) was 2.2 µM; with HCT116 tumor organoids (HCT-116, single agent, Table 4A, read-out: Tumor Organoid Cytotoxicity IC50 (μM) HCT116), 2.2 µM; in the series on SW620 tumor organoids, under 10 µM. For the same compound, the “downregulation of vimentin promoter activity (VimPro-GFP), in words” value in series [1] (setting [4]) is given as “marked down-regulation of the VimPro-GFP”. This compound displayed a half-life at 10 μM in series [3] of 1.17 h. In series [2] (setting [4]), the “upregulation of E-cadherin promoter activity (EcadPro-RFP), in words” value was “upregulation of EcadPro-RFP”.
Consider `CCc1nnc(NS(=O)(=O)c2ccc(NC(=O)c3nc4ccccc4s3)cc2)s1` [Compound 4], for which, on cat-CHD1L ATPase, the inhibition at 20 µM was over 50% and the IC50 is 900 to 5000 nM. Moreover, the “inhibition of TCF-transcription, in words” value in the series with TCF-transcription is “modest activity in cells with no dose dependent inhibition”.
